Assay [1] addresses Frizzled-1 (Homo sapiens) (UniProt Q9UP38). Briefly: Antagonist activity at frizzled-1 (unknown origin) expressed in rat C-FIT cells assessed as inhibition of Wnt3a-stimulated cell differentiation changes by measuring alpha-smooth muscle actin gene expression at 10 nM by quantitative RT-PCR analysis. Format: functional, cell-based. The note with it: filed as antagonist.
For assay [2], the target named is Frizzled-2 (Homo sapiens) (UniProt Q14332). Briefly: Antagonist activity at Wnt3a-stimulaed frizzled-2 (unknown origin) expressed in human HEK293superTOP flash cells at 1 nM incubated for 24 hrs by luciferase reporter gene assay (reference value: 0%). The settings on record: HEK293, filed as antagonist. Type of assay: functional, cell-based.
The target in assay [3] is Frizzled-1 (Rattus norvegicus) (UniProt Q08463). The experiment in a line: Agonist activity at rat frizzled-1 expressed in CHO cells by luciferase reporter gene assay. Type of assay: cell-based. In general terms: A reporter such as luciferase makes a cellular process visible.
For assay [4], the target named is Frizzled-1 (Homo sapiens) (UniProt Q9UP38). Briefly: Antagonist activity at Wnt3a-stimulaed human frizzled-1 expressed in human HEK293superTOP flash cells incubated for 24 hrs by luciferase reporter gene assay. Format: functional, cell-based. The note with it: HEK293, filed as antagonist.
Assay [5] concerns Mus musculus. The experiment in a line: Cardioprotective activity against myocardial infarction Swiss mouse model assessed as increase in myofibroblast number at 6 ug/kg/day, sc via osmotic pumps for 5 weeks by immunohistochemical staining analysis. Type of assay: functional, organism-based. The settings on record: dose 6.0 µg/kg/day.
The target in assay [6] is Frizzled-2 (Mus musculus) (UniProt Q9JIP6). The experiment in a line: Antagonist activity at Wnt3a-stimulaed mouse frizzled-2 expressed in human HEK293superTOP flash cells incubated for 24 hrs by luciferase reporter gene assay. Type of assay: cell-based. The note with it: HEK293, filed as antagonist.
Assay [7] deals with Frizzled-1 (Homo sapiens) (UniProt Q9UP38). Briefly: Antagonist activity at frizzled-1 (unknown origin) expressed in rat C-FIT cells assessed as inhibition of Wnt5a-stimulated cell differentiation changes by measuring alpha-smooth muscle actin gene expression at 10 nM by quantitative RT-PCR analysis. Type of assay: functional, cell-based. The settings on record: filed as antagonist.

Assay [8] deals with Frizzled-5 (Homo sapiens) (UniProt Q13467). The experiment in a line: Antagonist activity at Wnt3a-stimulaed frizzled-5 (unknown origin) expressed in human HEK293superTOP flash cells incubated for 24 hrs by luciferase reporter gene assay. Format: functional, cell-based. The settings on record: HEK293.
Assay [9] deals with Mus musculus. The experiment in a line: Cardioprotective activity against myocardial infarction Swiss mouse model assessed as increase in amount of blood vessels in heart at 6 ug/kg/day, sc via osmotic pumps for 5 weeks by immunohistochemical staining analysis. Format: functional, organism-based. The settings on record: dose 6.0 µg/kg/day.
The target of assay [10] is T1, Frizzled-4 (Homo sapiens) (UniProt Q9ULV1).
T1 sequence (whole entry): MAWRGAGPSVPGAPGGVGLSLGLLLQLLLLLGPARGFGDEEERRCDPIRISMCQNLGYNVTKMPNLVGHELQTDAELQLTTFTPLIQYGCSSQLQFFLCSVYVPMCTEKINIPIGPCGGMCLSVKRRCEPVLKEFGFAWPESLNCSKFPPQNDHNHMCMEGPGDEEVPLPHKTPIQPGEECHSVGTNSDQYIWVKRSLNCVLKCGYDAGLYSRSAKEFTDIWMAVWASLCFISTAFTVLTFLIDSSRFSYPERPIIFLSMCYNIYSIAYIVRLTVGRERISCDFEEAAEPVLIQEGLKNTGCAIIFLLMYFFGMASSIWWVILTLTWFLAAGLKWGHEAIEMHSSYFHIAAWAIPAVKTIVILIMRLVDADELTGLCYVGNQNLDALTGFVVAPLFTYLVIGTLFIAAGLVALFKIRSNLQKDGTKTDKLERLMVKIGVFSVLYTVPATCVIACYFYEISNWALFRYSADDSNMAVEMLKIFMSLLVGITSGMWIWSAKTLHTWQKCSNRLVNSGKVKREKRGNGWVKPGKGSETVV
Briefly: Antagonist activity at Wnt3a-stimulaed frizzled-4 (unknown origin) expressed in human HEK293superTOP flash cells incubated for 24 hrs by luciferase reporter gene assay. Format: functional, cell-based. The settings on record: HEK293.

Assay [11] has as its target Frizzled-2 (Homo sapiens) (UniProt Q14332). Briefly: Antagonist activity at Wnt3a-stimulaed human frizzled-2 expressed in human HEK293superTOP flash cells incubated for 24 hrs by luciferase reporter gene assay. Type of assay: functional, cell-based. The settings on record: HEK293, filed as antagonist.
The subject of assay [12] is Mus musculus. Briefly: Cardioprotective activity against myocardial infarction Swiss mouse model assessed as increase in alpha-SMA protein expression in heart at 6 ug/kg/day, sc via osmotic pumps for 5 weeks by western blot analysis. Type of assay: functional, organism-based. The note with it: dose 6.0 µg/kg/day.

Calls of active or inactive are those of the source. No cut-off for these calls is given here. Where a SMILES comes first, the peptide text is derived from it.

By inhibition is commonly meant the change of the read-out against control, counted positive when it falls.

Frizzled-1 (Homo sapiens), sequence (Q9UP38 70-647 limits assumed): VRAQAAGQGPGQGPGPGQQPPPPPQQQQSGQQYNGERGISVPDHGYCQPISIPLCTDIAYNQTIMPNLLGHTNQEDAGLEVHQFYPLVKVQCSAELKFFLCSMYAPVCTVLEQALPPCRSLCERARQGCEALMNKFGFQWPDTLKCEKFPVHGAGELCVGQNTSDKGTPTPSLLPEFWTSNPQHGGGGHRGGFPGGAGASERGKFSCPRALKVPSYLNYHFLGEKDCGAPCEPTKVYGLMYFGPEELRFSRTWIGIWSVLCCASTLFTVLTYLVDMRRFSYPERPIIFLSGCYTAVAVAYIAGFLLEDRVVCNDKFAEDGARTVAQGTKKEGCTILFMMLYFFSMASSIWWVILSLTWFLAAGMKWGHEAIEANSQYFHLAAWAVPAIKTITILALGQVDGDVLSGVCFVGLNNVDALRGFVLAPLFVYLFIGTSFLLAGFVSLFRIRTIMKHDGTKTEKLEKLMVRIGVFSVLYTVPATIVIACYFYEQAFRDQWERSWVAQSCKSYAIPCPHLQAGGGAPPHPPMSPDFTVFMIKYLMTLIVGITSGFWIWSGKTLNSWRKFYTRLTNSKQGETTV
Frizzled-2 (Homo sapiens), sequence (Q14332 24-565 limits assumed): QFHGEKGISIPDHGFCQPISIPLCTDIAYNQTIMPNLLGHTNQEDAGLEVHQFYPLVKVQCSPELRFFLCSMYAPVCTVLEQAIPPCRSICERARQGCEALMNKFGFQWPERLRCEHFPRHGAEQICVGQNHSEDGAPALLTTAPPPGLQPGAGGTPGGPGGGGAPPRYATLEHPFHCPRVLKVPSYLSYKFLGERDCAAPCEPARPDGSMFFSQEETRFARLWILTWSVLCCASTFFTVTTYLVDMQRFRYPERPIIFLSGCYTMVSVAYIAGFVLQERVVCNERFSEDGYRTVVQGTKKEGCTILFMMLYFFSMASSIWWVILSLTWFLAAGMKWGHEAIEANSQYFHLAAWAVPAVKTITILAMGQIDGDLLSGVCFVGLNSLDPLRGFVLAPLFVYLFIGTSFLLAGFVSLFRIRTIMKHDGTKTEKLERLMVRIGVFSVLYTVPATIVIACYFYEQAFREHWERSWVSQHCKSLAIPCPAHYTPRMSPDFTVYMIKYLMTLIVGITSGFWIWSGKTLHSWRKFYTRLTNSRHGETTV
Frizzled-5 (Homo sapiens), sequence (Q13467 whole entry): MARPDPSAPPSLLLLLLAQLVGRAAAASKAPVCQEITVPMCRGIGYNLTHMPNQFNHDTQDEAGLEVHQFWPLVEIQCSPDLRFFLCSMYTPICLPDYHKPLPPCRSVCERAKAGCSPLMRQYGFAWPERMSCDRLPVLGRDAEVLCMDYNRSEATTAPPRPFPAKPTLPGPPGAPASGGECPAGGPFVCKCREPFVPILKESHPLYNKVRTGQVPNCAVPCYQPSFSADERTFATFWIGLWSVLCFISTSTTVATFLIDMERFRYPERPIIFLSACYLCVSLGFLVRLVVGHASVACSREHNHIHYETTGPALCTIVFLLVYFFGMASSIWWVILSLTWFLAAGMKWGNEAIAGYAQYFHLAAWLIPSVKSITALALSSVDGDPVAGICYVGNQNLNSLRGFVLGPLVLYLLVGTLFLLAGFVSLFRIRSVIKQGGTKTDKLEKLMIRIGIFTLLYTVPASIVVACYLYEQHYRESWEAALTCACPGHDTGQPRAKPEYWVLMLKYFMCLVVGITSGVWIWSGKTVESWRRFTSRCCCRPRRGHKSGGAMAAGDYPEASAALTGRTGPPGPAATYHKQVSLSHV
Frizzled-2 (Mus musculus), sequence (Q9JIP6 whole entry, looked up): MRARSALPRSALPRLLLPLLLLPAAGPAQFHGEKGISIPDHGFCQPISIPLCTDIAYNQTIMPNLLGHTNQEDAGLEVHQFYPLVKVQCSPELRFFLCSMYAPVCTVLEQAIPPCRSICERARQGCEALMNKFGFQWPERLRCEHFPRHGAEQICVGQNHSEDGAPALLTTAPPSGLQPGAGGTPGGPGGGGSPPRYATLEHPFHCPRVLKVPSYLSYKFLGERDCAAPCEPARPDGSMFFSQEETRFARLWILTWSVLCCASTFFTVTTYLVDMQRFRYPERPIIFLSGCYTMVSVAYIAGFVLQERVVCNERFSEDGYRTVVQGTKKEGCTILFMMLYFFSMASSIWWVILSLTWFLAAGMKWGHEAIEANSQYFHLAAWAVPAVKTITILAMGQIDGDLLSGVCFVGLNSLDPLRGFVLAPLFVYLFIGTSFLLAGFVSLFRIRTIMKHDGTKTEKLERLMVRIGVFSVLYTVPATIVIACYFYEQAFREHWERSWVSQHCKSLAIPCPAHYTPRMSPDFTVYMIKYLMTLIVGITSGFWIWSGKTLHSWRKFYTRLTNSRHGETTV
Frizzled-1 (Rattus norvegicus), sequence (Q08463 whole entry): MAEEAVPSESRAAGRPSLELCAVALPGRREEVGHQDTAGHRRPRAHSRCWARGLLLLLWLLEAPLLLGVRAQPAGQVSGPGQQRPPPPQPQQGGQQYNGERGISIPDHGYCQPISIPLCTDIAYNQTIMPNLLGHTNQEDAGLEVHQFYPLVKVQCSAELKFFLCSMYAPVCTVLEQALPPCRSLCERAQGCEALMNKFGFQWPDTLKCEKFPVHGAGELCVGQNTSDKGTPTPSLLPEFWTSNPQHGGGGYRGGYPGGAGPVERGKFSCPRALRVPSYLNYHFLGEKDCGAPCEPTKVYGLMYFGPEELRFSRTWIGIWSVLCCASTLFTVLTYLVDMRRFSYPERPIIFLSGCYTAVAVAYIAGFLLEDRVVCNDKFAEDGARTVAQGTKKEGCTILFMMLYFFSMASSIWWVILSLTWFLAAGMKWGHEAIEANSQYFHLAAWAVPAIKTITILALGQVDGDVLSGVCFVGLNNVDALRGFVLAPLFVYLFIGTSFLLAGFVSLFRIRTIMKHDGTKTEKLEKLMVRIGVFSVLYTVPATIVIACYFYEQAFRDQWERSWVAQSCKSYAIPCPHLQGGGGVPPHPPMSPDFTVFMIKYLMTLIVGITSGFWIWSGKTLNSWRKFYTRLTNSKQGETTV

For `CSCC[C@H](NC(=O)CNC(=O)[C@H](CCC(=O)O)NC(=O)[C@H](CO)NC(=O)[C@@H](NC(=O)[C@H](CCCCN)NC(=O)[C@H](CC(N)=O)NC(=O)[C@H](CS)NC(C)=O)[C@@H](C)O)C(=O)N[C@@H](CC(=O)O)C(=O)NCC(=O)N[C@@H](CS)C(=O)N[C@@H](CCC(=O)O)C(=O)N[C@@H](CC(C)C)C(N)=O` (Ac-CNKTSEGMDGCEL-NH2), the inhibition in [1] is 100%; in [2], 61.2%; in assay [7] it was 100%. For the same molecule, the outcome in assay [3] was inactive. The inhibition result in assay [4], in [6] and in [11] was “Active” throughout. Also, the result with Mus musculus [5], in the assay with Mus musculus [9] and with Mus musculus [12] was Active. Moreover, the inhibition result in assay [8] and in assay [10] was “inactive” in each case.

Values taken from ChEMBL document CHEMBL4806963, “Antagonistic peptides for frizzled-1 and frizzled-2” (2013).
